Data: ChEMBL document CHEMBL1201862, “PubChem BioAssay data set” (2004)
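Values below derive from 48-hour exposures of cells grown in 96-well plates, with endpoints linearly interpolated between the two concentrations bracketing the appropriate inhibition level. At the GI50, growth is halved.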 Activity calls are given as the source filed them. Rule as the data show it: active = GI50 up to about 1.1 µM and inactive = higher.

How the values were obtained:
Experiment in all cases: NCI tumour cell line growth inhibition, 48 h
HL-60 = test system: HL-60
HOP-18 = test system: HOP-18
CAKI-1 = test system: CAKI-1
SNB-19 = test system: SNB-19
U-251 = test system: U-251
HCC 2998 = test system: HCC 2998
DMS-114 = test system: DMS-114
KM12 = test system: KM12
A549 = test system: A549
M14 = test system: M14
HOP-92 = test system: HOP-92
SR = test system: SR
SK-MEL-5 = test system: SK-MEL-5
K562 = test system: K562
XF498 = test system: XF498
DLD-1 = test system: DLD-1
SK-OV-3 = test system: SK-OV-3
OVCAR-4 = test system: OVCAR-4
RXF 393 = test system: RXF 393
HOP-62 = test system: HOP-62
786-0 = test system: 786-0
TK-10 = test system: TK-10
OVCAR-3 = test system: OVCAR-3
HT-29 = test system: HT-29
SK-MEL-2 = test system: SK-MEL-2
HCT-116 = test system: HCT-116
SK-MEL-28 = test system: SK-MEL-28
HCT-15 = test system: HCT-15
Malme-3M = test system: Malme-3M
OVCAR-8 = test system: OVCAR-8
COLO 205 = test system: COLO 205
M19-MEL = test system: M19-MEL
UACC-62 = test system: UACC-62
OVCAR-5 = test system: OVCAR-5
UO-31 = test system: UO-31
NCI-H23 = test system: NCI-H23
SF-539 = test system: SF-539
SF-268 = test system: SF-268
IGROV-1 = test system: IGROV-1
SF-295 = test system: SF-295
MOLT-4 = test system: MOLT-4
SNB-78 = test system: SNB-78
EKVX = test system: EKVX
RPMI-8226 = test system: RPMI-8226
CCRF-CEM = test system: CCRF-CEM
LXFL 529 = test system: LXFL 529
SW-620 = test system: SW-620
NCI-H226 = test system: NCI-H226
NCI-H522 = test system: NCI-H522
NCI-H460 = test system: NCI-H460
UACC-257 = test system: UACC-257
LOX IMVI = test system: LOX IMVI
DMS-273 = test system: DMS-273
SN12C = test system: SN12C
KM-20L2 = test system: KM-20L2
ACHN = test system: ACHN
A498 = test system: A498
SNB-75 = test system: SNB-75

For `COC(=O)/C=C/C(=O)C1C(C(=O)OC)C2(C(=O)OC)CCC1(C(=O)OC)N2` (stereo not drawn), the GI50 (HL-60) was > 100 µM (inactive), the GI50 (HOP-18) was > 100 µM (inactive) and the GI50 (CAKI-1) was > 100 µM (inactive). For the same compound, the GI50 (SNB-19) was > 100 µM (inactive), the GI50 (U-251) was > 100 µM (inactive) and the GI50 (HCC 2998) was > 100 µM (inactive). For the same compound, the GI50 (DMS-114) was > 100 µM (inactive), the GI50 (KM12) was > 100 µM (inactive) and the GI50 (A549) was > 100 µM (inactive). The GI50 (M14) was > 100 µM (inactive), the GI50 (HOP-92) was < 0.01 µM (active) and the GI50 (SR) was > 100 µM (inactive). For the same compound, the GI50 (SK-MEL-5) was > 100 µM (inactive), the GI50 (K562) was > 100 µM (inactive) and the GI50 (XF498) was 0.198 µM (active). The GI50 (DLD-1) was > 100 µM (inactive), the GI50 (SK-OV-3) was > 100 µM (inactive) and the GI50 (OVCAR-4) was > 100 µM (inactive). The GI50 (RXF 393) was > 100 µM (inactive), the GI50 (HOP-62) was > 100 µM (inactive) and the GI50 (786-0) was > 100 µM (inactive). The GI50 (TK-10) was > 100 µM (inactive), the GI50 (OVCAR-3) was > 100 µM (inactive) and the GI50 (HT-29) was > 100 µM (inactive). For the same compound, the GI50 (SK-MEL-2) was > 100 µM (inactive), the GI50 (HCT-116) was > 100 µM (inactive) and the GI50 (SK-MEL-28) was > 100 µM (inactive). The GI50 (HCT-15) was greater than 100 µM, the GI50 (Malme-3M) was > 100 µM (inactive) and the GI50 (OVCAR-8) was > 100 µM (inactive). For the same compound, the GI50 (COLO 205) was > 100 µM (inactive), the GI50 (M19-MEL) was > 100 µM (inactive) and the GI50 (UACC-62) was > 100 µM (inactive). For the same compound, the GI50 (OVCAR-5) was > 100 µM (inactive), the GI50 (UO-31) was > 100 µM (inactive) and the GI50 (NCI-H23) was > 100 µM (inactive). The GI50 (SF-539) was > 100 µM (inactive), the GI50 (SF-268) was > 100 µM (inactive) and the GI50 (IGROV-1) was > 100 µM (inactive). The GI50 (SF-295) was > 100 µM (inactive), the GI50 (MOLT-4) was > 100 µM (inactive) and the GI50 (SNB-78) was > 100 µM (inactive). The GI50 (EKVX) was > 100 µM (inactive) and the GI50 (RPMI-8226) was > 100 µM (inactive).

With `CCCCCCCCCCCOc1ccc(C(=O)C(=O)c2ccc(OCCCCCCCCCCC)c(OCCCCCCCCCCC)c2)cc1OCCCCCCCCCCC` the GI50 (HL-60) was > 100 µM (inactive), the GI50 (CAKI-1) was > 100 µM (inactive) and the GI50 (SNB-19) was > 100 µM (inactive). The GI50 (U-251) was > 100 µM (inactive), the GI50 (HCC 2998) was > 100 µM (inactive) and the GI50 (CCRF-CEM) was > 100 µM (inactive). For the same compound, the GI50 (LXFL 529) was > 100 µM (inactive), the GI50 (SW-620) was > 100 µM (inactive) and the GI50 (NCI-H226) was > 100 µM (inactive). The GI50 (DMS-114) was > 100 µM (inactive), the GI50 (KM12) was > 100 µM (inactive) and the GI50 (A549) was > 100 µM (inactive). The GI50 (M14) was > 100 µM (inactive), the GI50 (SK-MEL-5) was > 100 µM (inactive) and the GI50 (K562) was > 100 µM (inactive). For the same compound, the GI50 (NCI-H522) was > 100 µM (inactive), the GI50 (NCI-H460) was > 100 µM (inactive) and the GI50 (XF498) was > 100 µM (inactive). For the same compound, the GI50 (DLD-1) was > 100 µM (inactive), the GI50 (SK-OV-3) was > 100 µM (inactive) and the GI50 (OVCAR-4) was > 100 µM (inactive). For the same compound, the GI50 (UACC-257) was > 100 µM (inactive), the GI50 (LOX IMVI) was > 100 µM (inactive) and the GI50 (HOP-62) was > 100 µM (inactive). For the same compound, the GI50 (DMS-273) was > 100 µM (inactive), the GI50 (SN12C) was > 100 µM (inactive) and the GI50 (786-0) was > 100 µM (inactive). For the same compound, the GI50 (TK-10) was > 100 µM (inactive), the GI50 (OVCAR-3) was > 100 µM (inactive) and the GI50 (HT-29) was > 100 µM (inactive). The GI50 (SK-MEL-2) was > 100 µM (inactive), the GI50 (HCT-116) was > 100 µM (inactive) and the GI50 (SK-MEL-28) was > 100 µM (inactive). For the same compound, the GI50 (KM-20L2) was > 100 µM (inactive), the GI50 (HCT-15) was greater than 100 µM and the GI50 (Malme-3M) was > 100 µM (inactive). The GI50 (OVCAR-8) was > 100 µM (inactive), the GI50 (COLO 205) was > 100 µM (inactive) and the GI50 (ACHN) was > 100 µM (inactive). For the same compound, the GI50 (M19-MEL) was > 100 µM (inactive), the GI50 (UACC-62) was > 100 µM (inactive) and the GI50 (OVCAR-5) was > 100 µM (inactive). For the same compound, the GI50 (UO-31) was > 100 µM (inactive), the GI50 (NCI-H23) was > 100 µM (inactive) and the GI50 (SF-539) was > 100 µM (inactive). For the same compound, the GI50 (SF-268) was > 100 µM (inactive), the GI50 (IGROV-1) was > 100 µM (inactive) and the GI50 (A498) was > 100 µM (inactive). The GI50 (SF-295) was > 100 µM (inactive), the GI50 (SNB-75) was 31.3 µM (inactive) and the GI50 (MOLT-4) was 80.7 µM (inactive). The GI50 (SNB-78) was > 100 µM (inactive), the GI50 (EKVX) was > 100 µM (inactive) and the GI50 (RPMI-8226) was > 100 µM (inactive).
